Measurements taken from patent US9156811B2 (priority 2008, dated 2015).
pIC50: −log10 of the molar value. Like-named read-outs stand apart in the source and are kept apart here.

Key:
OE21 = assay: In-vitro antiproliferative assay, OE21; type: cell-based; conditions: Homo sapiens, read-out: IC50 OE21
MDA-MB-231 = assay: In-vitro antiproliferative assay, MDA-MB-231; type: cell-based, human; conditions: Homo sapiens, read-out: IC50 MDA-MB-231
NCI-H1299 = assay: In-vitro antiproliferative assay, NCI-H1299; type: cell-based; conditions: Homo sapiens, read-out: IC50 NCI-H1299
[1] = tested on: Trypanosome (T. brucei brucei); assay: In-vitro antitrypanosomal efficacy assay (cell growth, resazurin); type: cell-based; conditions: T. brucei cell growth
Description: To column 12, 200 μl media was added to provide a no cells control. Plates were then incubated at 37° C. in an atmosphere of 5% CO2 for 69 hours, before the addition of 20 μl of 500 μM rezasurin solution, and a further incubation period of 4 hours. […] Concentration effect curves were fitted using non-linear regression using XLFit 4.2 and EC50 values determined.

OE19 = assay: In-vitro antiproliferative assay, OE19; type: cell-based; conditions: Homo sapiens, read-out: IC50 OE19
C6 = assay: In-vitro antiproliferative assay, C6; conditions: C6, 72 h, read-out: IC50 C6
SkBr3 = assay: In-vitro antiproliferative assay, SkBr3; conditions: Homo sapiens, SK-BR-3, 72 h, read-out: IC50 SkBr3
H460 = assay: In-vitro antiproliferative assay, H460; conditions: Homo sapiens, NCI-H460, 72 h, read-out: IC50 H460
RT112 = assay: In-vitro antiproliferative assay, RT112; conditions: Homo sapiens, RT-112, 72 h, read-out: IC50 RT112
HT1080 = assay: In-vitro antiproliferative assay, HT1080; conditions: Homo sapiens, HT-1080, 72 h, read-out: IC50 HT1080
A549 = assay: In-vitro antiproliferative assay, A549; conditions: Homo sapiens, A549, 72 h, read-out: IC50 A549
MRC5 = assay: In-vitro antiproliferative assay, MRC5; conditions: Homo sapiens, MRC5, 72 h, read-out: IC50 MRC5
HT29 = assay: In-vitro antiproliferative assay, HT29; type: cell-based, human; conditions: Homo sapiens, HT-29, 72 h
HCT116 = assay: In-vitro antiproliferative assay, HCT116; type: cell-based, human; conditions: Homo sapiens, HCT-116, 72 h, read-out: IC50 HCT116

## Cc1nn(C)c(C)c1N[S+](=O)([O-])c1c(Cl)cc(-c2cccc(C3CCNCC3)c2)cc1Cl
OE21; OE21, 72 h
  pIC50: 5.92
MDA-MB-231; MDA-MB-231, 72 h
  pIC50: 6.05
NCI-H1299; NCI-H1299, 72 h
  pIC50: 5.43
[1]
  ED50 (μM) T. brucei: 0.02 µM
OE19; OE19, 72 h
  pIC50: 5.34

## Cc1nn(C)c(C)c1N[S+](=O)([O-])c1ccc(-c2cccc(CN3CCN(C)CC3)c2)cc1 [DDD86212, 3′-(4-Methyl-piperazin-1-ylmethyl)-biphenyl-4-sulfonic acid (1,3,6-trimethyl-1H-pyrazol-4-yl)-amide]
OE21; OE21, Table 3, 72 h, Alamar blue
  pIC50: 5.86
MDA-MB-231; MDA-MB-231, Table 3, 72 h, Alamar blue
  pIC50: 6.19
NCI-H1299; NCI-H1299, Table 3, 72 h, Alamar blue
  pIC50: 5.97
[1]
  ED50 (μM) T. brucei: 0.03 µM
OE19; OE19, Table 3, 72 h, Alamar blue
  pIC50: 5.36

## Cc1nn(C)c(C)c1N[S+](=O)([O-])c1c(Cl)cc(-c2ccnc(N3CCNCC3)c2)cc1Cl [DDD85646, 2,6-Dichloro-4-(2-piperazin-1-yl-pyridin-4-yl)-N-(1,3,5-trimethyl-1H-pyrazol-4-yl)-benzenesulfonamide]
C6
  pIC50: 5.94
SkBr3
  pIC50: 6.97
H460
  pIC50: 5.88
RT112
  pIC50: 6.48
OE21; OE21, 72 h
  pIC50: 6.54
MDA-MB-231; MDA-MB-231, 72 h
  pIC50: 6.64
HT1080
  pIC50: 7.22
A549
  pIC50: 6.80
NCI-H1299; NCI-H1299, 72 h
  pIC50: 6.24
MRC5
  pIC50: 6.91
[1]
  ED50 (μM) T. brucei: 0.001 µM
HT29; read-out: IC50 HT29
  pIC50: 6.95
HT29; read-out: IC50 HT-29
  pIC50: 6.95
OE19; OE19, 72 h
  pIC50: 6.18
HCT116
  pIC50: 6.63
